Assay results: ChEMBL document CHEMBL1128161, “Novel prostanoid thromboxane A2 antagonists” (Bioorg Med Chem Lett, 1995); call rule not given here

The compounds below were run against T1, Thromboxane A2 receptor (Homo sapiens) (UniProt P21731) (assay: Thromboxane A2 receptor binding affinity was evaluated, which is expressed as competition factor (CF = (IC50-test) / (IC50-standard); not parallel).
T1 sequence (whole entry): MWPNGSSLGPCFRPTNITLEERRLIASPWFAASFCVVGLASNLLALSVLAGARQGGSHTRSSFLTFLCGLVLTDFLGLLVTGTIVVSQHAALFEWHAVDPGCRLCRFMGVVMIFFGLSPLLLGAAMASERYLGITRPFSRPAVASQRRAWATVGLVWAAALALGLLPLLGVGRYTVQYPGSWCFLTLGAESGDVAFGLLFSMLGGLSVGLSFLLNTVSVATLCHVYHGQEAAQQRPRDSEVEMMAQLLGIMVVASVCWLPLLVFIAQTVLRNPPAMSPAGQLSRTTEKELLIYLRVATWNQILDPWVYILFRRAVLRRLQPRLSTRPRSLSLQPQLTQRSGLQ

SMILES | CF
Cc1ccc(S(=O)(=O)NC[C@H]2CC[C@H](F)[C@@H]2C/C=C\CCC(=O)O)cc1 | 6
Cc1ccc(S(=O)(=O)N[C@H]2CC[C@@H](F)[C@@H]2CCCCOCC(=O)O)cc1 | 3.5
O=C(O)COCCCC[C@@H]1[C@@H](CNS(=O)(=O)c2ccc(F)cc2)CC[C@H]1F | 6.7
O=C(O)COCCCC[C@H]1[C@H](F)CC[C@@H]1NS(=O)(=O)c1ccccc1 | 9.1
O=C(O)CC/C=C\C[C@@H]1[C@@H](CNS(=O)(=O)c2ccc(Cl)cc2)CC[C@@H]1F | 1.8
O=C(O)COCCCCC1=CCC[C@@H]1CNS(=O)(=O)c1ccc(F)cc1 | 0.5
O=C(O)CC/C=C\C[C@@H]1[C@@H](CNS(=O)(=O)c2ccc(F)cc2)CC[C@H]1F | 11
O=C(O)COCCCC[C@H]1[C@H](F)CC[C@@H]1NS(=O)(=O)c1ccc(F)cc1 | 2.7

These compounds were tested against T1, Thromboxane A2 receptor (Homo sapiens) (assay: Thromboxane A2 receptor binding affinity was evaluated as competition factor (CF = (IC50-test) / (IC50-standard)).

SMILES | CF
O=C(O)CC/C=C\C[C@H]1[C@H](F)CC[C@@H]1NS(=O)(=O)c1ccc(Cl)c(Cl)c1 | 1.4

What follows are compounds tested against T1, Thromboxane A2 receptor (Homo sapiens) (assay: Thromboxane A2 receptor binding affinity was evaluated, which is expressed as competition factor (CF = (IC50-test) / (IC50-standard)).

CF | SMILES
11 | O=C(O)CC/C=C\C[C@@H]1[C@@H](CNS(=O)(=O)c2ccc(F)cc2)CC[C@@H]1F
1.5 | O=C(O)CCCC=CC[C@H]1[C@H](F)CC[C@@H]1NS(=O)(=O)c1ccc(F)cc1
4 | O=C(O)CCC/C=C\C[C@H]1[C@H](F)CC[C@@H]1NS(=O)(=O)c1ccccc1
0.3 | O=C(O)CCC/C=C\CC1=CCC[C@@H]1NS(=O)(=O)c1ccc2ccccc2c1
5.1 | Cc1ccc(S(=O)(=O)N[C@H]2CC[C@@H](F)[C@@H]2C/C=C\CCC(=O)O)cc1
300 | O=C(O)CC/C=C\C[C@@H]1[C@@H](CNS(=O)(=O)c2ccc(F)cc2)CC[C@H]1F (stereo in doubt; form 2)
370 | O=C(O)CC/C=C\C[C@H]1[C@H](F)CC[C@@H]1NS(=O)(=O)c1ccccc1[N+](=O)[O-]
40 | O=C(O)CC/C=C\C[C@@H]1[C@@H](CNS(=O)(=O)c2ccc(Cl)cc2)CC[C@H]1F
0.3 | O=C(O)CCC/C=C\C[C@H]1[C@H](F)CC[C@@H]1NS(=O)(=O)c1ccc(Cl)cc1
6.6 | O=C(O)CC/C=C/C[C@H]1[C@H](F)CC[C@@H]1NS(=O)(=O)c1ccc(F)cc1F
340 | O=C(O)CCC/C=C\C[C@H]1[C@H](F)CC[C@@H]1NS(=O)(=O)c1cccc2cccnc12
10 | O=C(O)CC/C=C\C[C@H]1[C@H](F)CC[C@@H]1NS(=O)(=O)c1ccccc1
4.3 | O=C(O)CC/C=C\C[C@H]1[C@H](F)CC[C@@H]1NS(=O)(=O)c1ccc(F)cc1
154 | Cc1ccc(S(=O)(=O)NC[C@H]2CC[C@@H](F)[C@@H]2C/C=C\CCC(=O)O)cc1
50 | O=C(O)CCC/C=C\C[C@@H]1[C@@H](CNS(=O)(=O)c2ccc(F)cc2)CC[C@H]1F
10 | O=C(O)CCC/C=C\C[C@H]1[C@H](F)CC[C@@H]1NS(=O)(=O)c1ccccc1[N+](=O)[O-]
1.1 | O=C(O)CCC/C=C\C[C@H]1[C@H](F)CC[C@@H]1NS(=O)(=O)c1ccc(F)cc1F
1.3 | O=C(O)CC/C=C\C[C@H]1[C@H](F)CC[C@@H]1NS(=O)(=O)c1ccc(Cl)cc1
0.5 | O=C(O)CCC/C=C\C[C@H]1[C@H](F)CC[C@@H]1NS(=O)(=O)c1ccc(Cl)c(Cl)c1
0.3 | O=C(O)CCC/C=C\C[C@H]1[C@H](F)CC[C@@H]1NS(=O)(=O)c1ccc2ccccc2c1
1.5 | O=C(O)CCC/C=C\C[C@H]1[C@H](F)CC[C@@H]1NS(=O)(=O)c1ccc(F)cc1
300 | O=C(O)CC/C=C\C[C@@H]1[C@@H](CNS(=O)(=O)c2ccc(F)cc2)CC[C@H]1F (stereo in doubt; form 1)
1.5 | Cc1ccc(S(=O)(=O)N[C@H]2CC[C@@H](F)[C@@H]2C/C=C\CCCC(=O)O)cc1

More lines, now with the values behind:

SMILES | CF
O=C(O)COCCCCC1=CCC[C@@H]1NS(=O)(=O)c1ccc(F)cc1F | 22
O=C(O)CCC/C=C\CC1=CCC[C@@H]1NS(=O)(=O)c1ccc(F)cc1F | 1.5
Cc1ccc(S(=O)(=O)N[C@H]2CCC=C2C/C=C\CCCC(=O)O)cc1 | 1.5
O=C(O)CCCCCCC1=CCC[C@@H]1NS(=O)(=O)c1ccc(F)cc1 | 2.7
O=C(O)COCCCC[C@H]1[C@H](F)CC[C@@H]1NS(=O)(=O)c1ccc(Cl)cc1 | 0.8
O=C(O)CC/C=C\CC1=CCC[C@@H]1NS(=O)(=O)c1ccc(F)cc1 | 5.5
O=C(O)CCC/C=C\CC1=CCC[C@@H]1NS(=O)(=O)c1ccccc1 | 3.5
O=C(O)CC/C=C\CC1=CCC[C@@H]1NS(=O)(=O)c1ccc(F)cc1F | 14
O=C(O)CCCCCC[C@H]1[C@H](F)CC[C@@H]1NS(=O)(=O)c1ccc(F)cc1 | 7.5
O=C(O)COCCCC[C@H]1[C@H](F)CC[C@@H]1NS(=O)(=O)c1ccccc1[N+](=O)[O-] | 330
O=C(O)CCC/C=C\CC1=CCC[C@@H]1CNS(=O)(=O)c1ccc(F)cc1 | 17
O=C(O)CC/C=C\CC1=CCC[C@@H]1NS(=O)(=O)c1ccccc1 | 12
O=C(O)CCC/C=C\CC1=CCC[C@@H]1NS(=O)(=O)c1ccc(F)cc1 (stereo in doubt) | 1.5
O=C(O)CCC/C=C\CC1=CCC[C@@H]1NS(=O)(=O)c1ccc(Cl)cc1 | 0.3
O=C(O)COCCCC[C@H]1[C@H](F)CC[C@@H]1NS(=O)(=O)c1ccc(F)cc1F | 30
O=C(O)CC/C=C\CC1=CCC[C@@H]1NS(=O)(=O)c1ccc(Cl)c(Cl)c1 | 13
O=C(O)CCC/C=C\CC1=CCC[C@@H]1NS(=O)(=O)c1ccc(Cl)c(Cl)c1 | 1.1

SMILES | CF
O=C(O)COCCCCC1=CCC[C@@H]1NS(=O)(=O)c1ccc(F)cc1 | 13
O=C(O)CCC/C=C\CC1=CCC[C@@H]1NS(=O)(=O)c1ccc(F)cc1 (stereo in doubt; 3d) | 1.5
O=C(O)COCCCC[C@H]1[C@H](F)CC[C@@H]1NS(=O)(=O)c1ccc(Cl)c(Cl)c1 | 2.3
O=C(O)COCCCCC1=CCC[C@@H]1NS(=O)(=O)c1ccccc1[N+](=O)[O-] | 130
O=C(O)COCCCCC1=CCC[C@@H]1NS(=O)(=O)c1ccccc1 | 26
O=C(O)CCCCCC[C@@H]1[C@@H](CNS(=O)(=O)c2ccc(F)cc2)CC[C@H]1F | 260
O=C(O)CCCCC[C@@H]1[C@@H](CNS(=O)(=O)c2ccc(F)cc2)CC[C@H]1F | 380
O=C(O)COCCCCC1=CCC[C@@H]1NS(=O)(=O)c1ccc(Cl)cc1 | 2.6
O=C(O)CCCC=CCC1=CCC[C@@H]1NS(=O)(=O)c1cccc2cccnc12 | 560
Cc1ccc(S(=O)(=O)N[C@H]2CCC=C2CCCCOCC(=O)O)cc1 | 11
O=C(O)CC/C=C\CC1=CCC[C@@H]1CNS(=O)(=O)c1ccc(F)cc1 | 21
O=C(O)CC/C=C\CC1=CCC[C@@H]1NS(=O)(=O)c1ccc(Cl)cc1 | 2.8
Cc1ccc(S(=O)(=O)N[C@H]2CCC=C2C/C=C\CCC(=O)O)cc1 | 7.4
O=C(O)CCC/C=C\CC1=CCC[C@@H]1NS(=O)(=O)c1ccccc1[N+](=O)[O-] | 6.6
O=C(O)COCCCCC1=CCC[C@@H]1NS(=O)(=O)c1ccc(Cl)c(Cl)c1 | 7.6
O=C(O)CC/C=C\CC1=CCC[C@@H]1NS(=O)(=O)c1ccccc1[N+](=O)[O-] | 40

Organism: Homo sapiens
Assay: Compound was evaluated for the inhibition of platelet aggregation, assessed turbidimetrically in citreated human platelet rich plasma (PRP); NE means not effective
Format: functional, organism-based

SMILES | IC50
Cc1ccc(S(=O)(=O)NC[C@H]2CC[C@H](F)[C@@H]2C/C=C\CCC(=O)O)cc1 | Not Active
O=C(O)CCC/C=C\CC1=CCC[C@@H]1NS(=O)(=O)c1ccc(F)cc1F | Not Active
O=C(O)COCCCC[C@H]1[C@H](F)CC[C@@H]1NS(=O)(=O)c1ccc(Cl)cc1 | Not Active
O=C(O)CCC/C=C\CC1=CCC[C@@H]1NS(=O)(=O)c1ccc(Cl)cc1 | Not Active
O=C(O)CC/C=C\C[C@@H]1[C@@H](CNS(=O)(=O)c2ccc(Cl)cc2)CC[C@@H]1F | Not Active
O=C(O)CCC/C=C\CC1=CCC[C@@H]1NS(=O)(=O)c1ccc(Cl)c(Cl)c1 | Not Active
O=C(O)COCCCC[C@H]1[C@H](F)CC[C@@H]1NS(=O)(=O)c1ccc(Cl)c(Cl)c1 | Not Active
O=C(O)COCCCCC1=CCC[C@@H]1NS(=O)(=O)c1ccc(Cl)cc1 | Not Active
